Results taken from the NIST ThermoML archive (doi:10.1021/je1002829).

Assay: xn = mol fraction of the nth substance listed
Conditions: for mass density: 101 kPa, Liquid, Pycnometric method

CCC(=O)O [propanoic acid] + O
Conditions | mass density, 293.15 K [kg/m3] | mass density, 298.15 K [kg/m3] | mass density, 303.15 K [kg/m3] | mass density, 308.15 K [kg/m3] | surface tension liquid-gas, 293.15 K [mN/m] | surface tension liquid-gas, 298.15 K [mN/m] | surface tension liquid-gas, 303.15 K [mN/m] | surface tension liquid-gas, 308.15 K [mN/m]
x1 = 0.00861 | – | – | – | – | 53.75 | 52.45 | 52.18 | 51.48
x1 = 0.01457 | 1000.94 | 999.46 | 997.79 | 996.38 | 49.8 | 49.01 | 48.47 | 47.97
x1 = 0.02075 | – | – | – | – | 46.86 | 46.29 | 45.79 | 45.31
x1 = 0.03268 | 1004.5 | 1002.95 | 1001.28 | 998.86 | 42.79 | 42.3 | 41.69 | 41.23
x1 = 0.0455 | – | – | – | – | 39.75 | 39.16 | 38.43 | 37.89
x1 = 0.05436 | 1008.59 | 1006.51 | 1004.63 | 1002.08 | 38.2 | 37.55 | 36.83 | 36.18
x1 = 0.06602 | – | – | – | – | 36.71 | 36.04 | 35.36 | 34.61
x1 = 0.0747 | – | – | – | – | 35.93 | 35.28 | 34.6 | 33.85
x1 = 0.0869 | 1014.63 | 1011.95 | 1009.33 | 1006.91 | 35.19 | 34.59 | 33.85 | 33.19
x1 = 0.1019 | 1017.46 | 1014.23 | 1011.41 | 1008.86 | – | – | – | –
x1 = 0.1095 | – | – | – | – | 34.48 | 33.94 | 33.04 | 32.62
x1 = 0.128 | 1020.75 | 1017.92 | 1014.77 | 1011.7 | 34.1 | 33.59 | 32.68 | 32.35
x1 = 0.1494 | – | – | – | – | 33.68 | 33.18 | 32.43 | 32
x1 = 0.171 | 1025.1 | 1021.28 | 1017.58 | 1013.89 | 33.22 | 32.71 | 32.27 | 31.51
x1 = 0.1823 | – | – | – | – | 32.96 | 32.45 | 32.21 | 31.21
x1 = 0.1947 | 1025.78 | 1022.21 | 1018.26 | 1014.09 | – | – | – | –
x1 = 0.2318 | 1026.54 | 1022.48 | 1018.39 | 1014.03 | – | – | – | –
x1 = 0.2485 | 1026.51 | 1022.21 | 1018.12 | 1013.78 | – | – | – | –
x1 = 0.2755 | 1026.19 | 1021.74 | 1017.72 | 1013.1 | – | – | – | –
x1 = 0.3043 | 1025.42 | 1021.28 | 1017.05 | 1012.52 | – | – | – | –
x1 = 0.333 | 1024.97 | 1020.74 | 1016.65 | 1011.57 | – | – | – | –
x1 = 0.3701 | 1024.09 | 1019.95 | 1015.5 | 1010.29 | – | – | – | –
x1 = 0.4001 | 1023.22 | 1018.88 | 1014.2 | 1009.37 | – | – | – | –
